Measurements from PubChem BioAssay (NCI).
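The compound was tested at five concentrations on cells cultured in 96-well plates, with a 48-hour exposure period. At the GI50, growth is halved. Definition used: TGI = concentration required for complete inhibition of growth.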

How the values were obtained:
Assay in all cases: growth of human tumour cells (NCI), 48 h
SK-OV-3 ovarian = system: SK-OV-3 ovarian
RXF 393 renal = system: RXF 393 renal
SK-MEL-2 melanoma = system: SK-MEL-2 melanoma
NCI-H226 lung = system: NCI-H226 lung
HL-60(TB) leukemia = system: HL-60(TB) leukemia
HOP-62 NSCLC = system: HOP-62 NSCLC
786-0 renal = system: 786-0 renal
HOP-92 NSCLC = system: HOP-92 NSCLC
TK-10 renal = system: TK-10 renal
SW-620 colon = system: SW-620 colon
UACC-62 melanoma = system: UACC-62 melanoma
MOLT-4 leukemia = system: MOLT-4 leukemia
SNB-75 CNS = system: SNB-75 CNS
SK-MEL-28 melanoma = system: SK-MEL-28 melanoma
M14 melanoma = system: M14 melanoma
LOX IMVI melanoma = system: LOX IMVI melanoma
MCF7 breast = system: MCF7 breast
OVCAR-5 ovarian = system: OVCAR-5 ovarian
CCRF-CEM leukemia = system: CCRF-CEM leukemia
KM12 colon = system: KM12 colon
SF-539 CNS = system: SF-539 CNS
U251 CNS = system: U251 CNS
SNB-19 CNS = system: SNB-19 CNS
SF-295 CNS = system: SF-295 CNS
SN12C renal = system: SN12C renal
HCC-2998 colon = system: HCC-2998 colon
RPMI-8226 leukemia = system: RPMI-8226 leukemia
UO-31 renal = system: UO-31 renal
NCI-H460 lung = system: NCI-H460 lung
UACC-257 melanoma = system: UACC-257 melanoma
ACHN renal = system: ACHN renal
DU-145 prostate = system: DU-145 prostate
HS 578T breast = system: HS 578T breast
MDA-MB-231 breast = system: MDA-MB-231 breast
OVCAR-4 ovarian = system: OVCAR-4 ovarian
OVCAR-3 ovarian = system: OVCAR-3 ovarian
HCT-15 colon = system: HCT-15 colon
IGROV1 ovarian = system: IGROV1 ovarian
A549 NSCLC = system: A549 NSCLC
A498 renal = system: A498 renal
NCI-H522 lung = system: NCI-H522 lung
BT-549 breast = system: BT-549 breast
K-562 leukemia = system: K-562 leukemia
MDA-MB-435 = system: MDA-MB-435
HCT-116 colon = system: HCT-116 colon
CAKI-1 renal = system: CAKI-1 renal
PC-3 prostate = system: PC-3 prostate
SR leukemia = system: SR leukemia
T-47D breast = system: T-47D breast
MALME-3M melanoma = system: MALME-3M melanoma
NCI/ADR-RES ovarian = system: NCI/ADR-RES ovarian
EKVX NSCLC = system: EKVX NSCLC
SF-268 CNS = system: SF-268 CNS
OVCAR-8 ovarian = system: OVCAR-8 ovarian
COLO 205 colon = system: COLO 205 colon
SK-MEL-5 melanoma = system: SK-MEL-5 melanoma
HT29 colon = system: HT29 colon

Q: Which results are given for `COC(=O)N1c2ccc3c(nc(Cc4ccccc4)n3[C@H]3CCC[C@H](C(=O)O)C3)c2CC[C@@H]1C`?
A: GI50 (SK-OV-3 ovarian): 16.9 µM; TGI (SK-OV-3 ovarian): > 100 µM; GI50 (RXF 393 renal): 12.2 µM; TGI (RXF 393 renal): 91.1 µM; GI50 (SK-MEL-2 melanoma): 34.3 µM; TGI (SK-MEL-2 melanoma): > 100 µM; GI50 (NCI-H226 lung): 14.1 µM; TGI (NCI-H226 lung): > 100 µM; GI50 (HL-60(TB) leukemia): 3.18 µM; TGI (HL-60(TB) leukemia): > 100 µM; GI50 (HOP-62 NSCLC): 11.3 µM; TGI (HOP-62 NSCLC): > 100 µM; GI50 (786-0 renal): 5.67 µM; TGI (786-0 renal): > 100 µM; GI50 (HOP-92 NSCLC): 1.62 µM; TGI (HOP-92 NSCLC): 11.8 µM; GI50 (TK-10 renal): 5.7 µM; TGI (TK-10 renal): > 100 µM; GI50 (SW-620 colon): 46.4 µM; TGI (SW-620 colon): > 100 µM; GI50 (UACC-62 melanoma): 2.08 µM; TGI (UACC-62 melanoma): > 100 µM; GI50 (MOLT-4 leukemia): 14.3 µM; TGI (MOLT-4 leukemia): > 100 µM; GI50 (SNB-75 CNS): 0.431 µM; TGI (SNB-75 CNS): > 100 µM; GI50 (SK-MEL-28 melanoma): 13.2 µM; TGI (SK-MEL-28 melanoma): > 100 µM; GI50 (M14 melanoma): 5.86 µM; TGI (M14 melanoma): > 100 µM; GI50 (LOX IMVI melanoma): 1.03 µM; TGI (LOX IMVI melanoma): 30.2 µM; GI50 (MCF7 breast): 0.115 µM; TGI (MCF7 breast): > 100 µM; GI50 (OVCAR-5 ovarian): 30.9 µM; TGI (OVCAR-5 ovarian): > 100 µM; GI50 (CCRF-CEM leukemia): 6.55 µM; TGI (CCRF-CEM leukemia): > 100 µM; GI50 (KM12 colon): 16.4 µM; TGI (KM12 colon): > 100 µM; GI50 (SF-539 CNS): 15.7 µM; TGI (SF-539 CNS): > 100 µM; GI50 (U251 CNS): 17.1 µM; TGI (U251 CNS): > 100 µM; GI50 (SNB-19 CNS): 12.6 µM; TGI (SNB-19 CNS): > 100 µM; GI50 (SF-295 CNS): 11.7 µM; TGI (SF-295 CNS): > 100 µM; GI50 (SN12C renal): 17.3 µM; TGI (SN12C renal): > 100 µM; GI50 (HCC-2998 colon): 8.36 µM; TGI (HCC-2998 colon): 27.1 µM; GI50 (RPMI-8226 leukemia): 3.84 µM; TGI (RPMI-8226 leukemia): 80.9 µM; GI50 (UO-31 renal): 2.87 µM; TGI (UO-31 renal): > 100 µM; GI50 (NCI-H460 lung): 23.4 µM; TGI (NCI-H460 lung): > 100 µM; GI50 (UACC-257 melanoma): 14.6 µM; TGI (UACC-257 melanoma): > 100 µM; GI50 (ACHN renal): 17.2 µM; TGI (ACHN renal): > 100 µM; GI50 (DU-145 prostate): 93.6 µM; TGI (DU-145 prostate): > 100 µM; GI50 (HS 578T breast): 3.25 µM; TGI (HS 578T breast): > 100 µM; GI50 (MDA-MB-231 breast): 15.8 µM; TGI (MDA-MB-231 breast): > 100 µM; GI50 (OVCAR-4 ovarian): 6.84 µM; TGI (OVCAR-4 ovarian): > 100 µM; GI50 (OVCAR-3 ovarian): 13.3 µM; TGI (OVCAR-3 ovarian): > 100 µM; GI50 (HCT-15 colon): 16.2 µM; TGI (HCT-15 colon): > 100 µM; GI50 (IGROV1 ovarian): 20.8 µM; TGI (IGROV1 ovarian): > 100 µM; GI50 (A549 NSCLC): 27.6 µM; TGI (A549 NSCLC): > 100 µM; GI50 (A498 renal): 12.4 µM; TGI (A498 renal): 52.7 µM; GI50 (NCI-H522 lung): 11.3 µM; TGI (NCI-H522 lung): > 100 µM; GI50 (BT-549 breast): 48.5 µM; TGI (BT-549 breast): > 100 µM; GI50 (K-562 leukemia): 5.03 µM; TGI (K-562 leukemia): > 100 µM; GI50 (MDA-MB-435): 8.59 µM; TGI (MDA-MB-435): > 100 µM; GI50 (HCT-116 colon): 17.6 µM; TGI (HCT-116 colon): > 100 µM; GI50 (CAKI-1 renal): 1.81 µM; TGI (CAKI-1 renal): > 100 µM; GI50 (PC-3 prostate): 5.68 µM; TGI (PC-3 prostate): > 100 µM; GI50 (SR leukemia): 13.8 µM; TGI (SR leukemia): > 100 µM; GI50 (T-47D breast): 3.17 µM; TGI (T-47D breast): > 100 µM; GI50 (MALME-3M melanoma): 6.13 µM; TGI (MALME-3M melanoma): > 100 µM; GI50 (NCI/ADR-RES ovarian): 65.2 µM; TGI (NCI/ADR-RES ovarian): > 100 µM; GI50 (EKVX NSCLC): 17.9 µM; TGI (EKVX NSCLC): > 100 µM; GI50 (SF-268 CNS): 27.7 µM; TGI (SF-268 CNS): > 100 µM; GI50 (OVCAR-8 ovarian): 28.2 µM; TGI (OVCAR-8 ovarian): > 100 µM; GI50 (COLO 205 colon): 4.95 µM; TGI (COLO 205 colon): > 100 µM; GI50 (SK-MEL-5 melanoma): 10.2 µM; TGI (SK-MEL-5 melanoma): > 100 µM; GI50 (HT29 colon): 5.44 µM; TGI (HT29 colon): > 100 µM
